From US7351398B2, “Stabilization of radiopharmaceutical compositions using hydrophilic thioethers” (CIS bio international, priority 2000, dated 2008)

Experiments:
[1] = HPLC RCP of 99mTc-labelled depreotide with hydrophilic thioether additives; format: physicochemical; settings: for 3.5 hr RCP / 6.5 hr RCP / Initial RCP: 99mTc-depreotide kit, additive 4 mg in 100 μL, heated
Experimental: [drawing 16] These compounds and L-methionine were tested for their ability to stabilize ^99mTc-labelled depreotide. Each hydrophilic thioether was dissolved in water made up at 40 mg/mL and adjusted to pH 7 with HCl or NaOH. Each hydrophilic thioether (4 mg in 100 μL) was added to a formulated kit vial containing the peptide (“control” formulation in Table 1). To the control vials were added 100 μL water.

[2] = HPLC RCP of 99mTc-labelled bisamine bisthiol non-peptide chelator with L-methionine; format: physicochemical
Experimental: L-methionine was tested for its ability to stabilize a ^99mTc-labelled non-peptide chelator (4-(butanoic acid)-2,2,9,9 tetramethyl-4,7-diaza-1,10-decanedithiol) having the structure.
The non-peptide chelator was radiolabelled with ^99mTc in the presence and absence of L-methionine using the placebo vial heated preparation procedure as described in Example 6.

[3] = HPLC RCP of 99mTc-labelled depreotide kits with L-methionine; settings: formulated kits stored under normal conditions (≦−10° C.)
Experimental: Lyophilized kit vials were prepared containing depreotide, L-methionine (Met), and other components as described in Table 3. All formulations were adjusted to pH 7.4 prior to lyophilization.
The lyophilized kits were radiolabelled with ^99mTc by reconstitution with 1.0 mL technetium ^99mTc sodium pertechnetate (Technelite®) containing approximately 50 mCi ^99mTc and heating in a boiling water bath for 10 minutes. Some of the formulations were also radiolabelled in a room temperature preparation (allowed to stand at room temperature 30 minutes following reconstitution).

[4] = HPLC RCP of 99mTc-labelled glycoprotein IIb/IIIa receptor-binding peptide with L-methionine; format: physicochemical
Experimental: L-methionine was tested for its ability to stabilize a ^99mTc-labelled glycoprotein IIb/IIIa receptor-binding peptide having the structure.
Lyophilized kit vials were prepared containing the peptide (50 μg), sodium glucoheptonate dihydrate (10 mg), stannous chloride dihydrate (50 μg), and edetate disodium dihydrate (100 μg). The formulation was adjusted to pH 7.4 prior to lyophilization.
The lyophilized kits were radiolabelled with ^99mTc in the presence and absence of L-methionine. To the Met preparation was added 4 mg methionine (in 100 μL saline) and 100 μL ethanol. To the control preparation was added 100 μL ethanol and 100 μL saline to account for the additional saline or ethanol added with the L-methionine. Both vials were then reconstituted with 1.0 mL technetium ^99mTc sodium pertechnetate (Technelite®) containing approximately 50 mCi ^99mTc and allowed to incubate for 30 minutes at room temperature.

[5] = HPLC RCP of 99mTc-labelled benzodiazepinedione derivative kits with L-methionine; format: physicochemical; settings: formulated kits
Experimental: L-methionine was tested for its ability to stabilize a ^99mTc-labelled glycoprotein IIb/IIIa receptor-binding benzodiazepinedione derivative 1-[(carboxyglycyl-glycyl-glycyl-cysteinamide)methyl]-4-(2-carboxyethyl)-7-[(4-amidinophenyl)methyl]-3,4-dihydro-1H-1,4-benzodiazepine-2,5-dione trifluoroacetate, having the structure.
All formulations were adjusted to pH 7.4 prior to lyophilization.
The lyophilized kits were radiolabelled with ^99mTc by reconstitution with 1.0 mL technetium ^99mTc sodium pertechnetate (Technelite®) containing approximately 50 mCi ^99mTc and heating in a boiling water bath for 10 minutes.

[6] = HPLC RCP of 99mTc-labelled depreotide kits with L-methionine after accelerated temperature (40° C.) kit storage; format: physicochemical; settings: lyophilized kits stored at 40° C. prior to radiolabelling
Experimental: Lyophilized kits were prepared containing depreotide, L-methionine (Met), and other components as described in Table 5. All formulations were adjusted to pH 7.4 prior to lyophilization. The kits were stored for one week at 40° C. Some kits were also stored at −10° C. as controls.
The lyophilized kits were radiolabelled with ^99mTc by reconstitution with 1.0 mL technetium ^99mTc sodium pertechnetate (Technelite®) containing approximately 50 mCi ^99mTc and incubation in a boiling water bath (10 min).

[7] = HPLC RCP of 99mTc-labelled monoamine, diamide, single thiol peptide chelator with L-methionine; format: physicochemical
Experimental: L-methionine was tested for its ability to stabilize a ^99mTc-labelled monoamine, diamide, single thiol peptide chelator having the structure.
Lyophilized kit “placebo” vials were prepared containing sodium glucoheptonate dihydrate, edetate disodium dihydrate, and stannous chloride dihydrate at the concentrations set forth in Table 1 (control formulation).
The peptide chelator was radiolabelled with ^99mTc in the presence and absence of L-methionine. The peptide chelator was dissolved in water at a concentration of 1 mg/mL, and 50 μg (50 μL) of the peptide was added to each of three placebo vials. Ethanol and L-methionine were added to the control and methionine preparations as described in Example 5. In addition, 100 μL phosphate buffered saline (PBS) was added to each preparation. The vials were reconstituted with 0.9-1.0 mL ^99mTc sodium pertechnetate (Technelite®) containing approximately 50 mCi ^99mTc, and heated in a boiling water bath for ten minutes.

[8] = Radiochemical purity (RCP) by reversed phase HPLC of 99mTc-labelled depreotide kits with gentisic acid; format: physicochemical; settings: included in formulated kits
Experimental: Lyophilized kit vials were prepared containing depreotide, GA, and other components as described in Table 1. Formulations were adjusted to pH 7.4 or 8.5 (as noted) prior to lyophilization.

Compound	Effect on radiolabelling yield and stability of 99mTc-labelled peptide (depreotide) [1]	3.5 hr RCP [1] [%]	6.5 hr RCP [1] [%]	Initial RCP [1] [%]	further results
CSCC[C@H](N)C(=O)O [L-methionine]	–	90.4	89.3	95	Effect on radiolabelling yield and stability of 99mTc-labelled non-peptide chelator [2]: increases; HPLC RCP (%) 0.5 hr ([2]; 99mTc-non-peptide chelator, 4 mg methionine or none, heated, 0.5 hr): 66.7%; HPLC RCP (%) 3 hr ([2]; 99mTc-non-peptide chelator, 4 mg methionine or none, heated, 3 hr): 70.0%; HPLC RCP (%) 6 hr ([2]; 99mTc-non-peptide chelator, 4 mg methionine or none, heated, 6 hr): 70.8%; HPLC RCP (%) 9 hr ([2]; 99mTc-non-peptide chelator, 4 mg methionine or none, heated, 9 hr): 70.4%; Effect on radiolabelling yield and stability of 99mTc-depreotide [3]: increases; Effect on radiolabelling yield and stability of the 99mTc-peptide [4]: increases; HPLC RCP (%) 0.5 hr ([4]; 99mTc-GPIIb/IIIa peptide, 4 mg methionine or none, room temperature 30 min, 0.5 hr): 96.7%; HPLC RCP (%) 3.5 hr ([4]; 99mTc-GPIIb/IIIa peptide, 4 mg methionine or none, room temperature 30 min, 3.5 hr): 96.9%; HPLC RCP (%) 6.5 hr ([4]; 99mTc-GPIIb/IIIa peptide, 4 mg methionine or none, room temperature 30 min, 6.5 hr): 96.2%; Effect on radiolabelling yield and stability of 99mTc-labelled benzodiazepinedione derivative [5]: increases; Stabilization of 99mTc-depreotide [6]: does not stabilize; Effect on radiolabelling yield and stability of 99mTc-labelled peptide chelator [7]: increases; HPLC RCP (%) 0.5 hr ([7]; 99mTc-peptide chelator, 4 mg L-methionine or none, heated, 0.5 hr): 98.4%; HPLC RCP (%) 3 hr ([7]; 99mTc-peptide chelator, 4 mg L-methionine or none, heated, 3 hr): 97.2%; HPLC RCP (%) 6 hr ([7]; 99mTc-peptide chelator, 4 mg L-methionine or none, heated, 6 hr): 95.5%; HPLC RCP (%) 9 hr ([7]; 99mTc-peptide chelator, 4 mg L-methionine or none, heated, 9 hr): 92.8%
O=C(O)c1cc(O)ccc1O [gentisic acid, Gentisic acid]	–	–	–	–	Effect on radiolabelling yield and stability of 99mTc-depreotide [8]: decreases
CS(=O)(=O)CC[C@H](N)C(=O)O [methionine sulfone, reference compound]	no effect	–	–	–	–

Further lines, with some results ahead:

Effect on radiolabelling yield and stability of 99mTc-labelled peptide (depreotide) [1]	3.5 hr RCP [1] [%]	6.5 hr RCP [1] [%]	Initial RCP [1] [%]	Compound	further results
increase	94.2	93.3	92.8	CCSCCN [2-(Ethylthio)ethylamine]	–
no effect	–	–	–	CSCCC=O [3-(methylthio)propionaldehyde, reference compound]	–
increase	84	80.9	89.1	CSCC(O)CO (stereo not drawn) [3-Methylthio-1,2-propanediol, 3-methylthio-1,2-propanediol]	–
no effect	–	–	–	C[S+]([O-])CC[C@H](N)C(=O)O (stereo partly drawn) [Methionine sulfoxide, reference compound]	–
increase	93.9	90.7	94.1	CSCC[C@H](N)CO [Methioninol, methioninol]	–
